# Measured values reported in patent US20160009725A1, “PYRROLO- AND PYRAZOLO-TRIAZOLODIAZEPINES AS BET-PROTEIN INHIBITORS FOR TREATING HYPERPROLIFERATIVE DISEASES” (BAYER PHARMA AKTIENGESELLSCHAFT, priority 2013, published 2016).
# pIC50: −log10 of the molar value. Read-outs that look alike come from different tables or passages of the source.
# Columns and labels:
# BRD4 (BD1) = target: T1, BRD4 (BD1) (Homo sapiens, UniProt O60885); test: Binding assay BRD4/acetylated peptide H4 (TR-FRET protein-protein interaction assay)
# T1 construct: N-terminally His6-tagged BRD4 (BD1) (amino acids 67-152, longer constructs also being possible, preferably amino acids 44-168); made in house; host or cells: E. coli
# From the text: To assess the BRD4 binding strength of the substances described in this application, the ability thereof to inhibit the interaction between BRD4 (BD1) and acetylated histone H4 in a dose-dependent manner was quantified. For this purpose, a time-resolved fluorescence resonance energy transfer (TR-FRET) assay was used, which measures the binding between N-terminally His6-tagged BRD4 (BD1) (amino acids 67-152, longer constructs also being possible, preferably amino acids 44-168) and a synthetic acetylated histone H4 (Ac-H4) peptide with sequence […]-biotin. The recombinant BRD4 protein produced in-house according to Filippakopoulos et al., Nature, 2010, 468:1119-1123 was expressed in E. coli and purified by means of (Ni-NTA) affinity and (Sephadex G-75) size exclusion chromatography. The Ac-H4 peptide can be purchased, for example, from Biosyntan (Berlin, Germany). […] For this purpose, 100-fold concentrated solutions in DMSO were prepared by serial dilutions (1:3.4) of a 2 mM stock solution into a clear, 384-well microtitre plate (Greiner Bio-One, Frickenhausen, Germany). From this, 50 nl were transferred into a black test plate (Greiner Bio-One, Frickenhausen, Germany). […] This was followed by a 10-minute incubation step at 22° C. for the pre-equilibration of putative complexes between BRD4 and the substances. […] The mixture was then incubated in the dark at 22° C. for one hour and then at 4° C. for at least 3 hours and for no longer than overnight. The formation of BRD4/Ac-H4 complexes was determined by the measurement of the resonance energy transfer from the streptavidin-Eu cryptate to the anti-6His-XL665 antibody present in the reaction. For this purpose, the fluorescence emission was measured at 620 nm and 665 nm after excitation at 330-350 nm in a TR-FRET measuring instrument, for example a Rubystar or Pherastar (both from BMG Lab Technologies, Offenburg, Germany) or a Viewlux (Perkin-Elmer). The ratio of the emissions at 665 nm and at […] was taken as an indicator of the amount of BRD4/Ac-H4 complexes formed. The data (ratios) obtained were normalized, with 0% inhibition corresponding to the mean from the measurements for a set of controls (typically 32 data points) in which all the reagents were present. In these, in place of test substances, 50 nl of DMSO (100%) were used Inhibition of 100% corresponded to the mean from the measurements for a set of controls (typically 32 data points) in which all the reagents except BRD4 were present. The IC50 was determined by regression analysis based on a 4-parameter equation (minimum, maximum, IC50, Hill; […])).
# MOLM-13 cells = test: Cell proliferation assay (alamarBlue), MOLM-13; format: cell-based; conditions: Homo sapiens, acute myeloid leukaemia, 96 hours incubation
# Procedure: (§1) In accordance with the invention, the ability of the substances to inhibit cell proliferation was determined Cell viability was determined by means of the alamarBlue® reagent (Invitrogen) in a Victor ×3 Multilabel Reader (Perkin Elmer). The excitation wavelength was 530 nm and the emission wavelength […].
# The MOLM-13 cells (DSMZ, ACC 554) were sown at a concentration of 4000 cells/well in 100 μl of growth medium (RPMI1640, 10% FCS) on 96-well microtitre plates.
# (§2) After overnight incubation at 37° C., the fluorescence values (CI values) were determined. Then the plates were treated with various substance dilutions (1E-5 M, 3E-6 M, 1E-6 M, 3E-7 M, 1E-7 M, 3E-8 M, 1E-8 M) and incubated at 37° C. over 96 (MOLM-13, B16F10, MDA-MB-431 cells), 120 (MOLP-8 cells) or 168 (LAPC-4 cells) hours. Subsequently, the fluorescence values were determined (CO values). For the data analysis, the CI values were subtracted from the CO values and the results were compared between cells which had been treated with various dilutions of the substance or only with buffer solution. The IC50 values (substance concentration needed for 50% inhibition of cell proliferation) were calculated therefrom.
# (§3) The substances were tested in the cell lines in Table 1, which represent the indications specified by way of example: […]
# LAPC-4 cells = test: Cell proliferation assay (alamarBlue), LAPC-4; format: cell-based; conditions: Homo sapiens, LAPC4, prostate cancer, 1 nM methyltrienolone, 168 hours incubation
# Procedure: as §1
# The LAPC-4 cells (ATCC, PTA-1441TM) were sown at a concentration of 4000 cells/well in 100 μl of growth medium (RPMI1640, 2 mM L-glutamine, 10% cFCS) on 96-well microtitre plates. One day later, the LAPC-4 cells were treated with 1 nM methyltrienolone and various substance dilutions.
# as §2, §3
# B16F10 cells = test: Cell proliferation assay (alamarBlue), B16F10; format: cell-based; conditions: Mus musculus, B16-F10, melanoma (BRAF wild-type), 96 hours incubation
# Procedure: as §1
# The B16F10 cells (ATCC, CRL-6475) were sown at a concentration of 300-500 cells/well in 100 μl of growth medium (DMEM with phenol red, 10% FCS) on 96-well microtitre plates.
# as §2, §3
# MOLP-8 cells = test: Cell proliferation assay (alamarBlue), MOLP-8; format: cell-based; conditions: Homo sapiens, multiple myeloma, 120 hours incubation
# Procedure: as §1
# The MOLP-8 cells (DSMZ, ACC 569) were sown at a concentration of 4000 cells/well in 100 μl of growth medium (RPMI1640, 20% FCS) on 96-well microtitre plates.
# as §2, §3
# MDA-MB-231 cells = test: Cell proliferation assay (alamarBlue), MDA-MB-231; format: cell-based; conditions: Homo sapiens, mammary carcinoma, 96 hours incubation, read-out: Breast MDA-MB-231 IC50
# Procedure: as §1
# The MDA-MB-231 cells (DSMZ, ACC 732) were sown at a concentration of 4000 cells/well in 100 μl of growth medium (DMEM/Ham's F12 medium, 10% FCS) on 96-well microtitre plates.
# as §2, §3
# [1] = BRD4 (BD1) / acetylated histone H4 peptide, TR-FRET, read-out: IC50 (BRD4)
SMILES,pIC50 (BRD4 (BD1); [1]),pIC50 (MOLM-13 cells),pIC50 (LAPC-4 cells),pIC50 (B16F10 cells),pIC50 (BRD4 (BD1)),pIC50 (MOLP-8 cells),pIC50 (MDA-MB-231 cells)
"Cc1c2c(cn1C)-n1c(C)nnc1[C@H](CC(=O)N1CC3(COC3)C1)N=C2c1ccc(Cl)cc1 [Example 1, (−)-2-[(4S)-6-(4-Chlorophenyl)-1,7,8-trimethyl-4,8-dihydropyrrolo[3,4-f][1,2,4]triazolo-[4,3-a][1,4]diazepin-4-yl]-1-(2-oxa-6-azaspiro[3.3]hept-6-yl)ethan-1-one]",6.82,6.15,6.17,5.94,–,–,–
"Cc1c2c(cn1C)-n1c(C)nnc1[C@H](CC(=O)N1CC3CC1CO3)N=C2c1ccc(Cl)cc1 (stereo in doubt) [Example 7, (−)-2-[(4S)-6-(4-Chlorophenyl)-1,7,8-trimethyl-4,8-dihydropyrrolo[3,4-f][1,2,4]triazolo[4,3-a][1,4]diazepin-4-yl]-1-{(1S,4S)-2-oxa-5-azabicyclo[2.2.1]hept-5-yl}ethan-1-one]",6.68,–,–,–,–,–,–
"Cc1c2c(cn1C)-n1c(C)nnc1[C@H](CC(=O)N1CC3(CCS3(=O)=O)C1)N=C2c1ccc(Cl)cc1 [Example 3, (−)-2-[(4S)-6-(4-Chlorophenyl)-1,7,8-trimethyl-4,8-dihydropyrrolo[3,4-f][1,2,4]triazolo[4,3-a][1,4]diazepin-4-yl]-1-(1,1-dioxo-1λ^6-1-thia-6-azaspiro[3.3]hept-6-yl)ethan-1-one]",–,6.96,6.96,6.80,7.70,6.85,6.52
"Cc1c2c(cn1C)-n1c(C)nnc1[C@H](CC(=O)N1CCC3(COC3)C1)N=C2c1ccc(Cl)cc1 [Example 13, (−)-2-[(4S)-6-(4-Chlorophenyl)-1,7,8-trimethyl-4,8-dihydropyrrolo[3,4-f][1,2,4]triazolo[4,3-a][1,4]diazepin-4-yl]-1-(2-oxa-6-azaspiro[3.4]oct-6-yl)ethanone]",7.15,6.39,6.64,–,–,–,–
"Cc1c2c(cn1C)-n1c(C)nnc1[C@H](CC(=O)N1CCC3(CC1)COC3)N=C2c1ccc(Cl)cc1 [Example 12, (−)-2-[(4S)-6-(4-Chlorophenyl)-1,7,8-trimethyl-4,8-dihydropyrrolo[3,4-f][1,2,4]triazolo[4,3-a][1,4]diazepin-4-yl]-1-(2-oxa-7-azaspiro[3.5]non-7-yl)ethanone]",6.92,6.32,–,–,–,–,–
"Cc1c2c(cn1C)-n1c(C)nnc1[C@H](CC(=O)N1CC3CCC1CC3)N=C2c1ccc(Cl)cc1 (single isomer, unassigned; (-)) [Example 14]",7.00,6.16,6.28,–,–,–,–
"Cc1c2c(cn1C)-n1c(C)nnc1[C@H](CC(=O)N1CC3CCC(C3)C1)N=C2c1ccc(Cl)cc1 (single isomer, unassigned; (-)) [Example 10]",6.51,5.84,–,–,–,–,–
"Cc1c2c(cn1C)-n1c(C)nnc1[C@H](CC(=O)N1CC3(CCOCC3)C1)N=C2c1ccc(Cl)cc1 [Example 11, (−)-2-[(4S)-6-(4-Chlorophenyl)-1,7,8-trimethyl-4,8-dihydropyrrolo[3,4-f][1,2,4]triazolo[4,3-a][1,4]diazepin-4-yl]-1-(7-oxa-2-azaspiro[3.5]non-2-yl)ethanone]",6.16,–,–,–,–,–,–
"Cc1nnc2n1-c1cn(C)nc1C(c1ccc(Cl)cc1)=N[C@H]2CC(=O)N1CC2(CCS2(=O)=O)C1 [Example 15, 2-[(4S)-6-(4-Chlorophenyl)-1,8-dimethyl-4,8-dihydropyrazolo[3,4-f][1,2,4]triazolo[4,3-a][1,4]diazepin-4-yl]-1-(1,1-dioxido-1-thia-6-azaspiro[3.3]hept-6-yl)ethanone]",6.10,5.57,–,–,–,–,–
"Cc1c2c(cn1C)-n1c(C)nnc1[C@H](CC(=O)N1CCOC3(CCCCC3)C1)N=C2c1ccc(Cl)cc1 [Example 9, (−)-2-[(4S)-6-(4-Chlorophenyl)-1,7,8-trimethyl-4,8-dihydropyrrolo[3,4-f][1,2,4]triazolo[4,3-a][1,4]diazepin-4-yl]-1-(1-oxa-4-azaspiro[5.5]undec-4-yl)ethanone]",7.10,5.98,5.97,–,–,–,–
"Cc1c2c(cn1C)-n1c(C)nnc1[C@H](CC(=O)N1C3CCC1CC(=O)C3)N=C2c1ccc(Cl)cc1 (single isomer, unassigned; (-)) [Example 6]",6.62,5.91,6.28,6.05,–,–,–
"Cc1c2c(cn1C)-n1c(C)nnc1[C@H](CC(=O)N1CC3(COC3)C1)N=C2c1ccccc1 [Example 2, 2-(1,7,8-Trimethyl-6-phenyl-4,8-dihydropyrrolo[3,4-f][1,2,4]triazolo[4,3-a][1,4]diazepin-4-yl)-1-(2-oxa-6-azaspiro[3.3]hept-6-yl)ethan-1-one]",6.85,6.05,6.04,5.70,–,–,–
"Cc1nnc2n1-c1cn(C)nc1C(c1ccc(Cl)cc1)=N[C@H]2CC(=O)N1CC2(COC2)C1 [Example 4, 2-[(4S)-6-(4-Chlorophenyl)-1,8-dimethyl-4,8-dihydropyrazolo[3,4-f][1,2,4]triazolo[4,3-a][1,4]diazepin-4-yl]-1-(2-oxa-6-azaspiro[3.3]hept-6-yl)ethan-1-one]",6.34,–,–,–,–,–,–
"Cc1c2c(cn1C)-n1c(C)nnc1[C@H](CC(=O)N1CC3CCC(C1)O3)N=C2c1ccc(Cl)cc1 (single isomer, unassigned; (-)) [Example 8]",6.72,6.12,6.27,–,–,–,–
